Measured values: patent US8471035B1, “Two-photon absorbing arylamine-endcapped and dialkylfluorene-bridged benzobisthiazole compounds with high oleophilicity” (The United States of America as represented by the …, priority 2011, dated 2013)

Columns and labels:
[1] = Solubility in hexane at room temperature (AF-388 series); assay type: physicochemical; conditions: for solubility in hexane, % wt/vol. / solubility in hexane, % wt/wt: 24° C.; for amount that remained completely dissolved in hexane for months: ambient conditions
[2] = Solubility in toluene at room temperature; assay type: physicochemical
Description: In addition, these chromophores are found to be even more soluble in aromatic hydrocarbon solvents as indicated by the higher solubilities of AF388-118 (≧29 wt %) and AF388-312 (≧67 wt %) in toluene.

| SMILES | solubility in hexane, % wt/vol. [1] | solubility in hexane, % wt/wt [1] | concentration of toluene solution that remained homogenous [2] | solubility in toluene [2] | concentration of toluene solution that solidified at room temperature after 72 hours ([2]; 72 hours) | amount that remained completely dissolved in hexane for months [1] |
| --- | --- | --- | --- | --- | --- | --- |
| CC(C)CCCC(C)CCC1(CCC(C)CCCC(C)C)c2cc(-c3nc4cc5sc(-c6ccc7c(c6)C(CCC(C)CCCC(C)C)(CCC(C)CCCC(C)C)c6cc(N(c8ccccc8)c8ccccc8)ccc6-7)nc5cc4s3)ccc2-c2ccc(N(c3ccccc3)c3ccccc3)cc21 (stereo not shown) [AF-388-118] | 0.41 % wt/vol. | 0.61 % wt/wt | 0.24 M | ≥ 29 wt % | 0.34 M | – |
| CC(C)CCCC(C)CCCC(C)CCC1(CCC(C)CCCC(C)CCCC(C)C)c2cc(-c3nc4cc5sc(-c6ccc7c(c6)C(CCC(C)CCCC(C)CCCC(C)C)(CCC(C)CCCC(C)CCCC(C)C)c6cc(N(c8ccccc8)c8ccccc8)ccc6-7)nc5cc4s3)ccc2-c2ccc(N(c3ccccc3)c3ccccc3)cc21 (stereo not shown) [AF-388-312, 2,6-Bis[7-(diphenylimino)-9,9-bis(3,7,1′-trimethyldodecylfluoren-2-yl)]-benzobisthiazole] | 20.2 % wt/vol. | 30.4 % wt/wt | 0.34 M | ≥ 67 wt % | – | ≥ 30 wt % |
| CC(C)CCCC(C)CCCC(C)CCCC(C)CCC1(CCC(C)CCCC(C)CCCC(C)CCCC(C)C)c2cc(-c3nc4cc5sc(-c6ccc7c(c6)C(CCC(C)CCCC(C)CCCC(C)CCCC(C)C)(CCC(C)CCCC(C)CCCC(C)CCCC(C)C)c6cc(N(c8ccccc8)c8ccccc8)ccc6-7)nc5cc4s3)ccc2-c2ccc(N(c3ccccc3)c3ccccc3)cc21 (stereo not shown) [AF-388-416, 2,6-Bis[7-(diphenylimino)-9,9-bis(3,7,11,15-tetramethylhexadecyl)fluoren-2-yl]-benzobisthiazole] | 36.3 % wt/vol. | 51.3 % wt/wt | – | – | – | ≥ 51 wt % |
